Tests used:
Format in all cases: in vivo
[1] = test system: barnyardgrass (Echinochloa crus-galli, ECHCG); experiment: Pre-emerge test, greenhouse herbicide activity screening; conditions: phytotoxicity rating 0-100, 14 days after application
Outline: (§1)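 Sandy loam pots; pre-emerge: sown 1 d pre-spray, surface-watered after, then bottom-watered. Post-emerge: sown 8–21 d before, 2–3 leaf stage, + 0.25% v/v NIS, bottom-watered. Acetone, 187 l/ha track spray, 15–1000 g ai/ha. 0–100 injury score, day 14.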

[2] = test system: velvetleaf (Abutilon theophrasti, ABUTH); experiment: as above; conditions: phytotoxicity rating 0-100, 14 days after application
Outline: as §1

[3] = test system: large crabgrass (Digitaria sanguinalis, DIGSA); experiment: as above; conditions: phytotoxicity rating 0-100, 14 days after application
Outline: as §1

[4] = test system: lambsquarters (Chenopodium album, CHEAL); experiment: as above; conditions: phytotoxicity rating 0-100, 14 days after application
Outline: as §1

[5] = test system: johnsongrass (Sorghum halepense, SORHA); experiment: as above; conditions: phytotoxicity rating 0-100, 14 days after application
Outline: as §1

[6] = test system: sicklepod (Cassia obtusifolia, CASOB); experiment: as above; conditions: phytotoxicity rating 0-100, 14 days after application
Outline: as §1

[7] = test system: ivyleaf morningglory (Ipomoea hederacea, IPOHE); experiment: as above; conditions: phytotoxicity rating 0-100, 14 days after application
Outline: as §1

[8] = test system: common ragweed (Ambrosia artemisizfolia L., AMBEL); experiment: as above; conditions: phytotoxicity rating 0-100, 14 days after application
Outline: as §1

[9] = test system: green foxtail (Setaria viridis, SETVI); experiment: as above; conditions: phytotoxicity rating 0-100, 14 days after application
Outline: as §1

[10] = test system: redroot pigweed (Amaranthus retroflexus, AMARE); experiment: as above; conditions: phytotoxicity rating 0-100, 14 days after application
Outline: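 Herbicidal damage is scored 0 (none) to 100 (complete plant death) two weeks after a simulated field spray. Rates span 15–1000 g ai/ha, delivered in acetone at 187 l/ha. For post-emergence treatments, plants have 2–3 leaves and the spray carries 0.25% v/v non-ionic surfactant.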

[11] = test system: barnyardgrass (Echinochloa crus-galli, ECHCG); experiment: Post-emerge test, greenhouse herbicide activity screening; conditions: post-emerge, 14 days after application, rating scale 0-100
Outline: (§2)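 Compounds in acetone were track-sprayed at 187 l/ha, 15–1000 g ai/ha, onto sandy loam pots. Pre-emerge seeds were sown one day before spraying, with surface watering afterwards. Post-emerge plants were at the 2–3 leaf stage and sprayed with 0.25% v/v non-ionic surfactant. Injury was rated 0–100 at 14 days.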

[12] = test system: redroot pigweed (Amaranthus retroflexus, AMARE); experiment: as above; conditions: post-emerge, 14 days after application
Outline: as §2

[13] = test system: velvetleaf (Abutilon theophrasti, ABUTH); experiment: as above; conditions: post-emerge, 14 days after application, rating scale 0-100
Outline: as §2

[14] = test system: large crabgrass (Digitaria sanguinalis, DIGSA); experiment: as above; conditions: post-emerge, 14 days after application, rating scale 0-100
Outline: as §2

[15] = test system: lambsquarters (Chenopodium album, CHEAL); experiment: as above; conditions: post-emerge, 14 days after application, rating scale 0-100
Outline: as §2

[16] = test system: johnsongrass (Sorghum halepense, SORHA); experiment: as above; conditions: post-emerge, 14 days after application, rating scale 0-100
Outline: as §2

[17] = test system: sicklepod (Cassia obtusifolia, CASOB); experiment: as above; conditions: post-emerge, 14 days after application, rating scale 0-100
Outline: as §2

[18] = test system: ivyleaf morningglory (Ipomoea hederacea, IPOHE); experiment: as above; conditions: post-emerge, 14 days after application, rating scale 0-100
Outline: as §2

[19] = test system: green foxtail (Setaria viridis, SETVI); experiment: as above; conditions: post-emerge, 14 days after application, rating scale 0-100
Outline: as §2

[20] = test system: upland rice (Oryza sp., var. Tebonnet, RICE); experiment: Post-emerge test, crop safety; conditions: post-emerge, 14 days after application, rating scale 0-100
Outline: as §1

[21] = test system: field corn (Zea mays L., var. Dekalb 535, CORN); experiment: Post-emerge test, crop safety; conditions: post-emerge, 14 days after application, rating scale 0-100
Outline: as §1

[22] = test system: upland rice (Oryza sp., var. Tebonnet, RICE); experiment: Pre-emerge test, crop safety; conditions: crop damage rating 0-100, 14 days after application
Outline: (§3)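 Plants grown in 10 cm pots of sandy loam mix received acetone-dissolved compounds through a moving flat-fan nozzle. Doses ranged from 15 to 1000 g ai/ha. Pre-emerge pots were seeded one day earlier, post-emerge pots 8–21 days earlier. Fourteen days on, each pot was graded 0–100 for damage.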

[23] = test system: field corn (Zea mays L., var. Dekalb 535, CORN); experiment: Pre-emerge test, crop safety; conditions: crop damage rating 0-100, 14 days after application
Outline: as §3

[24] = 63 g ai/ha, rating scale 0-100 (0 no damage, 100 complete death)
[25] = 250 g ai/ha, rating scale 0-100

Cc1ccc(-n2c(=O)cc(C(F)(F)F)n(C)c2=O)c(NC(=O)c2ccc3ccccc3c2)c1 [2-201]
Pre-emerge Herbicidal Activity ECHCG ([1]; 63 g ai/ha): 15
Pre-emerge Herbicidal Activity ECHCG ([1]; 250 g ai/ha): 75
Pre-emerge Herbicidal Activity ABUTH ([2]; 63 g ai/ha): 98
Pre-emerge Herbicidal Activity ABUTH ([2]; 250 g ai/ha): 100
Pre-emerge Herbicidal Activity DIGSA ([3]; 63 g ai/ha): 45
Pre-emerge Herbicidal Activity DIGSA ([3]; 250 g ai/ha): 95
Pre-emerge Herbicidal Activity CHEAL ([4]; 63 g ai/ha): 98
Pre-emerge Herbicidal Activity CHEAL ([4]; 250 g ai/ha): 100
Pre-emerge Herbicidal Activity SORHA ([5]; 63 g ai/ha): 0
Pre-emerge Herbicidal Activity SORHA ([5]; 250 g ai/ha): 30
Pre-emerge Herbicidal Activity CASOB ([6]; 63 g ai/ha): 0
Pre-emerge Herbicidal Activity CASOB ([6]; 250 g ai/ha): 0
Pre-emerge Herbicidal Activity IPOHE ([7]; 63 g ai/ha): 55
Pre-emerge Herbicidal Activity IPOHE ([7]; 250 g ai/ha): 80
Pre-emerge Herbicidal Activity AMBEL ([8]; 63 g ai/ha): 30
Pre-emerge Herbicidal Activity AMBEL ([8]; 250 g ai/ha): 80
Pre-emerge Herbicidal Activity SETVI ([9]; 63 g ai/ha): 0
Pre-emerge Herbicidal Activity SETVI ([9]; 250 g ai/ha): 75
Pre-emerge Herbicidal Activity AMARE ([10]; 63 g ai/ha): 95
Pre-emerge Herbicidal Activity AMARE ([10]; 250 g ai/ha): 95
phytotoxicity rating ECHCG ([11]; 63 g ai/ha): 50
phytotoxicity rating ECHCG ([11]; 250 g ai/ha): 60
phytotoxicity rating AMARE [12, 24]: 99
phytotoxicity rating AMARE [12, 25]: 100
phytotoxicity rating ABUTH ([13]; 63 g ai/ha): 95
phytotoxicity rating ABUTH ([13]; 250 g ai/ha): 99
phytotoxicity rating DIGSA ([14]; 63 g ai/ha): 35
phytotoxicity rating DIGSA ([14]; 250 g ai/ha): 45
phytotoxicity rating CHEAL ([15]; 63 g ai/ha): 95
phytotoxicity rating CHEAL ([15]; 250 g ai/ha): 98
phytotoxicity rating SORHA ([16]; 63 g ai/ha): 0
phytotoxicity rating SORHA ([16]; 250 g ai/ha): 0
phytotoxicity rating CASOB ([17]; 63 g ai/ha): 60
phytotoxicity rating CASOB ([17]; 250 g ai/ha): 85
phytotoxicity rating IPOHE ([18]; 63 g ai/ha): 95
phytotoxicity rating IPOHE ([18]; 250 g ai/ha): 95
phytotoxicity rating SETVI ([19]; 63 g ai/ha): 20
phytotoxicity rating SETVI ([19]; 250 g ai/ha): 30
phytotoxicity rating RICE (crop damage) ([20]; 63 g ai/ha): 60
phytotoxicity rating RICE (crop damage) ([20]; 250 g ai/ha): 65
phytotoxicity rating CORN (crop damage) ([21]; 63 g ai/ha): 30
phytotoxicity rating CORN (crop damage) ([21]; 250 g ai/ha): 35
Pre-emerge Herbicidal Activity RICE ([22]; 63 g ai/ha): 0
Pre-emerge Herbicidal Activity RICE ([22]; 250 g ai/ha): 30
Pre-emerge Herbicidal Activity CORN ([23]; 63 g ai/ha): 0
Pre-emerge Herbicidal Activity CORN ([23]; 250 g ai/ha): 0

Cn1c(C(F)(F)F)cc(=O)n(-c2ccc(Cl)cc2NC(=O)OCc2ccccc2F)c1=O [4-49]
Pre-emerge Herbicidal Activity ECHCG ([1]; 63 g ai/ha): 10
Pre-emerge Herbicidal Activity ECHCG ([1]; 250 g ai/ha): 75
Pre-emerge Herbicidal Activity ABUTH ([2]; 63 g ai/ha): 95
Pre-emerge Herbicidal Activity ABUTH ([2]; 250 g ai/ha): 100
Pre-emerge Herbicidal Activity DIGSA ([3]; 63 g ai/ha): 70
Pre-emerge Herbicidal Activity DIGSA ([3]; 250 g ai/ha): 100
Pre-emerge Herbicidal Activity CHEAL ([4]; 63 g ai/ha): 100
Pre-emerge Herbicidal Activity CHEAL ([4]; 250 g ai/ha): 100
Pre-emerge Herbicidal Activity SORHA ([5]; 63 g ai/ha): 50
Pre-emerge Herbicidal Activity SORHA ([5]; 250 g ai/ha): 90
Pre-emerge Herbicidal Activity CASOB ([6]; 63 g ai/ha): 30
Pre-emerge Herbicidal Activity CASOB ([6]; 250 g ai/ha): 60
Pre-emerge Herbicidal Activity IPOHE ([7]; 63 g ai/ha): 40
Pre-emerge Herbicidal Activity IPOHE ([7]; 250 g ai/ha): 100
Pre-emerge Herbicidal Activity AMBEL ([8]; 63 g ai/ha): 80
Pre-emerge Herbicidal Activity AMBEL ([8]; 250 g ai/ha): 60
Pre-emerge Herbicidal Activity SETVI ([9]; 63 g ai/ha): 70
Pre-emerge Herbicidal Activity SETVI ([9]; 250 g ai/ha): 100
Pre-emerge Herbicidal Activity AMARE ([10]; 63 g ai/ha): 100
Pre-emerge Herbicidal Activity AMARE ([10]; 250 g ai/ha): 100
phytotoxicity rating ECHCG ([11]; 63 g ai/ha): 10
phytotoxicity rating ECHCG ([11]; 250 g ai/ha): 10
phytotoxicity rating AMARE [12, 24]: 100
phytotoxicity rating AMARE [12, 25]: 100
phytotoxicity rating ABUTH ([13]; 63 g ai/ha): 100
phytotoxicity rating ABUTH ([13]; 250 g ai/ha): 100
phytotoxicity rating DIGSA ([14]; 63 g ai/ha): 10
phytotoxicity rating DIGSA ([14]; 250 g ai/ha): 10
phytotoxicity rating CHEAL ([15]; 63 g ai/ha): 100
phytotoxicity rating CHEAL ([15]; 250 g ai/ha): 100
phytotoxicity rating SORHA ([16]; 63 g ai/ha): 0
phytotoxicity rating SORHA ([16]; 250 g ai/ha): 10
phytotoxicity rating CASOB ([17]; 63 g ai/ha): 80
phytotoxicity rating CASOB ([17]; 250 g ai/ha): 100
phytotoxicity rating IPOHE ([18]; 63 g ai/ha): 80
phytotoxicity rating IPOHE ([18]; 250 g ai/ha): 100
phytotoxicity rating SETVI ([19]; 63 g ai/ha): 30
phytotoxicity rating SETVI ([19]; 250 g ai/ha): 30
phytotoxicity rating RICE (crop damage) ([20]; 63 g ai/ha): 10
phytotoxicity rating RICE (crop damage) ([20]; 250 g ai/ha): 70
phytotoxicity rating CORN (crop damage) ([21]; 63 g ai/ha): 20
phytotoxicity rating CORN (crop damage) ([21]; 250 g ai/ha): 80
Pre-emerge Herbicidal Activity RICE ([22]; 63 g ai/ha): 30
Pre-emerge Herbicidal Activity RICE ([22]; 250 g ai/ha): 25
Pre-emerge Herbicidal Activity CORN ([23]; 63 g ai/ha): 0
Pre-emerge Herbicidal Activity CORN ([23]; 250 g ai/ha): 15

Reference: patent US6355799B1, “Substituted benzene compounds, process for their preparation, and herbicidal and defoliant compositions containing them” (ISK Americas Incorporated, priority 1997, dated 2002)
